Values of other authors as cited in article PMC9186412, “Rational Framework for the Design of Trp- and Arg-Rich Peptide Antibiotics Against Multidrug-Resistant Bacteria” (Frontiers in Microbiology, 2022).
Read-outs that look alike come from different tables or passages of the source.

Tested on: CDC AR isolates
Parameters: key: S (green), susceptible; I (blue), intermediate; R (red), resistant
Details: data provided by the CDC, ref CDC, cited from earlier work
Excerpt: Supplement Table_3.XLSX, sheet "CDC AR isolates profiles" | column: G(-) strains

[1] = Acinetobacter baumannii AB273, CDC AR isolate
[2] = Acinetobacter baumannii AB274, CDC AR isolate
[3] = Acinetobacter baumannii AB275, CDC AR isolate
[4] = Acinetobacter baumannii AB276, CDC AR isolate
[5] = Pseudomonas aeruginosa PA229, CDC AR isolate
[6] = Pseudomonas aeruginosa PA230, CDC AR isolate
[7] = Pseudomonas aeruginosa PA231, CDC AR isolate
[8] = Pseudomonas aeruginosa PA232, CDC AR isolate
[9] = Pseudomonas aeruginosa PA239, CDC AR isolate
[10] = Enterobacter cloacae E62, CDC AR isolate
[11] = Enterobacter cloacae E544, CDC AR isolate
[12] = Enterobacter cloacae E545, CDC AR isolate
[13] = Enterobacter cloacae E546, CDC AR isolate
[14] = Escherichia coli EC541, CDC AR isolate
[15] = Escherichia coli EC543, CDC AR isolate
[16] = Escherichia coli EC544, CDC AR isolate
[17] = Escherichia coli EC549, CDC AR isolate
[18] = Klebsiella pneumoniae KP542, CDC AR isolate
[19] = Klebsiella pneumoniae KP548, CDC AR isolate
[20] = Klebsiella pneumoniae KP550, CDC AR isolate
[21] = Klebsiella pneumoniae KP552, CDC AR isolate

Measured: Antibiotic susceptibility profile

CCN1CCN(C(=O)N[C@@H](C(=O)N[C@@H]2C(=O)N3[C@@H]2SC(C)(C)[C@@H]3C(=O)O)c2ccccc2)C(=O)C1=O [Piperacillin]
R: [1] | [2] | [3] | [4] | [5] | [6] | [7] | [9]
S: [8]

CO/N=C(\C(=O)N[C@@H]1C(=O)N2C(C(=O)[O-])=C(C[N+]3(C)CCCC3)CS[C@H]12)c1csc(N)n1 [Cefepime]
S: [10] | [8]
R: [1] | [2] | [3] | [4] | [11] | [12] | [13] | [14] | [15] | [16] | [17] | [18] | [19] | [20] | [21] | [5] | [6] | [7] | [9]

CN(C)c1ccc(O)c2c1C[C@H]1C[C@H]3[C@H](N(C)C)C(O)=C(C(N)=O)C(=O)[C@@]3(O)C(O)=C1C2=O [Minocycline]
S: [4]
I: [1] | [2] | [3]

CN(C)c1cc(CNCC(C)(C)C)c(O)c2c1C[C@H]1C[C@H]3[C@H](N(C)C)C(O)=C(C(N)=O)C(=O)[C@@]3(O)C(O)=C1C2=O [Omadacycline]
R: [18] | [19] | [20]
S: [21]

C[C@@H](O)[C@H]1C(=O)N2C(C(=O)O)=C(SCCN=CN)C[C@H]12 [Imipenem]
R: [1] | [2] | [3] | [11] | [13] | [16] | [19] | [20] | [21] | [5] | [6] | [7] | [8] | [9]
I: [12] | [14] | [17] | [18]
S: [4] | [10] | [15]

CO/N=C(\C(=O)N[C@@H]1C(=O)N2C(C(=O)O)=C(COC(C)=O)CS[C@H]12)c1csc(N)n1 [Cefotaxime]
R: [1] | [2] | [3] | [4] | [10] | [11] | [12] | [13] | [14] | [15] | [16] | [17] | [18] | [19] | [20] | [21]

CN(C)c1cc(NC(=O)CNC(C)(C)C)c(O)c2c1C[C@H]1C[C@H]3[C@H](N(C)C)C(O)=C(C(N)=O)C(=O)[C@@]3(O)C(O)=C1C2=O [Tigecycline]
I: [19]
S: [10] | [13] | [14] | [15] | [16] | [17] | [18] | [20] | [21]
R: [11] | [12]

C[C@H]1[C@H](NC(=O)/C(=N\OC(C)(C)C(=O)O)c2csc(N)n2)C(=O)N1S(=O)(=O)O [Azreonam]
R: [14] | [15] | [16] | [17] | [18] | [19] | [20] | [21] | [5] | [7] | [9]
S: [6] | [8]

C[C@@H](O)[C@H]1C(=O)N2C(C(=O)O)=C(S[C@@H]3CN[C@H](C(=O)Nc4cccc(C(=O)O)c4)C3)[C@H](C)[C@H]12 [Ertapenem]
S: [10] | [12]
I: [14]
R: [15] | [16] | [17] | [18] | [19] | [20] | [21]

CO/N=C(\C(=O)N[C@@H]1C(=O)N2C(C(=O)O)=C(CSc3nc(=O)c(=O)[nH]n3C)CS[C@H]12)c1csc(N)n1 [Ceftriaxone]
R: [1] | [2] | [3] | [4] | [10] | [11] | [12] | [13] | [14] | [15] | [16] | [17] | [18] | [19] | [20] | [21]

C[C@@H](O)[C@H]1C(=O)N2C(C(=O)O)=C(S[C@@H]3CN[C@H](CNS(N)(=O)=O)C3)[C@H](C)[C@H]12 [Doripenem]
S: [10] | [12] | [14] | [8]
I: [15] | [18]
R: [1] | [2] | [3] | [4] | [11] | [13] | [16] | [17] | [19] | [20] | [21] | [5] | [6] | [7] | [9]

O=C(O)c1cn(C2CC2)c2cc(N3CCNCC3)c(F)cc2c1=O [Ciprofloxacin]
R: [1] | [2] | [3] | [4] | [5] | [6] | [7] | [8] | [9]

NCC[C@H](O)C(=O)N[C@@H]1C[C@H](N)[C@@H](O[C@H]2O[C@H](CN)[C@@H](O)[C@H](O)[C@H]2O)[C@H](O)[C@H]1O[C@H]1O[C@H](CO)[C@@H](O)[C@H](N)[C@H]1O [Amikacin]
R: [1] | [3] | [13] | [14] | [18] | [6] | [9]
I: [4]
S: [2] | [10] | [11] | [12] | [15] | [16] | [17] | [19] | [20] | [21] | [5] | [7] | [8]
